Laboratory results as given in patent publication US20180250321A1, “COMPOSITIONS AND METHODS FOR RESTORING THE IMMUNE SYSTEM” (ORPHEUS THERAPEUTICS, INC., priority 2017, published 2018).

Key:
NKT cells [1] = experiment: IFNγ production in mice injected with glycolipid in the presence or absence of GD3 (FIG. 18); format: in vivo, wild-type C57BL/6 mice; conditions: C57BL/6 mice
Experimental: OT-0010 is effective at restoring NKT cell function when wild-type C57BL/6 mice were injected intravenously with either αGalCer (KRN7000) or OT-0010 in the presence or absence of GD3.
In addition, the glycolipids of the present invention are able to fully restore IFN-γ levels, and cause a restoration of NKT cells to a Th-1 response profile (FIG. 18). […] When α-GalCer is administered at a dosage of 3 μgm, only 50% NKT cell function is restored (FIG. 25). While not wishing to be bound by theory, the reason why the glycolipids of the present invention are able to restore NKT cells to a Th-1 response profile is because these glycolipids bind more strongly to CD1d. From a thermodynamic perspective, it is impossible for GD3 to displace these glycolipids from CD1d. […] Again, while not wishing to be bound by theory, it is believed that the glycolipids of the present invention bind more strongly to CD1d due to the incorporation of the -phenyl ring to the distal end of the aliphatic carbon chain attached to the amide group connected to the C1 glycoside linkage of the galactose sugar moiety. The terminal fluorine, —OMe, or —CF3 further enhance the binding of the glycolipids of the present invention to CD1d. The results disclosed in FIG. 18 are unexpected.

NKT cells [2] = conditions: cited from earlier work

Compound	IFNγ production (NKT cells [1]; glycolipid + GD3, intravenous)	restoration of IFN-γ levels (NKT cells [2]; FIG. 25, in the presence of GD3)	NKT cell function restored (NKT cells [2]; dosage of 3 μgm, in the presence of GD3, FIG. 25) [%]	IFNγ production (NKT cells [1]; substance alone, intravenous)	α-GalCer-induced cytokine production in vivo (IFN-γ, IL-4, IL-12) (NKT cells [2]; 1 μg α-GalCer intravenously with or without GD3, serum ELISA)	IFN-γ production by NKT cells (NKT cells [2]; FIG. 25, effect of GD3)
CCCCCCCCCCCCCCCCCCCCCCCCCC(=O)N[C@@H](CO[C@H]1O[C@H](CO)[C@H](O)[C@H](O)[C@H]1O)[C@H](O)[C@H](O)CCCCCCCCCCCCCC [α-GalCer]	Inhibition of IFNγ production	does not restore IFN-γ levels	50	–	–	–
Ganglioside D3 [GD3]	–	–	–	Inhibition of IFNγ production	inhibits	dramatic decrease in IFN-γ production
